In patent US20230107216A1, “PANTETHEINE DERIVATIVES AND USES THEREOF” (Comet Therapeutics, Inc., priority 2018, published 2023):
Like-named read-outs stand apart in the source and are kept apart here.

Tests used:
[1] = system: Propionic Acidemia (PA) primary fibroblasts GM00371; test: Mitochondrial respiration, XFe96 Extracellular Flux Analyzer (OCR/ECAR), PA fibroblasts GM00371; format: cell-based; details: Homo sapiens, Fibroblast
HepG2 cells = test: Glucose uptake (Glucose Uptake-Glo); format: cell-based; details: Homo sapiens, read-out: % increase in Glucose Uptake
[2] = system: Venular Endothelial cells (HUVEC) (3C system); test: BioMAP 3C system (IL-1β, TNFα, IFNγ); format: cell-based, human; details: 10 uM; procedure of Example 825
Method: (§1) The BioMAP platform (BioMAP® Diversity PLUS® Panel from Eurofins) is an in vitro phenotypic profiling technology that screened the compounds of the present disclosure (hereafter indicated as test agents) in human primary cell-based systems modelling complex tissue and disease states. The BioMAP assays were performed using the Eurofin's BioMAP Technology Platform as (see references 1 to 13 in the example 824 section) to model different diseases on primary cell-based model systems. These systems consisted of either single primary cell types or co-culture cells. Adherent cell types were cultured or co-cultured in 96 or 384-well plates until confluence followed by the addition of compounds prepared in DMSO at a final concentration of ≤0.1%. In each cell-based system, primary cells from heathy donors (2-6 donors) were pooled and treated with compounds at 1 and 10 μM dose 1h prior to stimulation and remain in culture as indicated in Example 825, Example 826, Example 827, Example 828, Example 829, Example 830, Example 831, Example 832, Example 833, Example 834, Example 835, Example 836 and Example 837. For on the BioMAP® Diversity PLUS® Panel, please see the following references, which are incorporate herein.
Following the general procedure as described in Example 824, Venular Endothelial cells (HUVEC) (3C system) were treated with IL-1β, TNFα, IFNγ for 24h to model Th1 driven cardiovascular and chronic inflammation diseases in the presence or absence of the compounds. Biomarker read out were; Tissue Factor, ICAM-1, E-selectin, uPAR (CD87), IL-8, MIG, HLA-DR, proliferation and SRB (Sulfo-rhodamine i.e. staining for protein content).

[3] = system: Venular Endothelial cells (HUVEC) (4H system); test: BioMAP 4H system (IL-4 and histamine); format: cell-based, human; details: 10 uM; procedure of Example 826
[4] = system: Peripheral blood mononuclear cells co-cultured with venular endothelial cells (HUVEC) (LPS system); test: BioMAP LPS system; format: cell-based, human; details: procedure of Example 827
[5] = system: Bronchial epithelial cells co-cultured with dermal fibroblast (BF4T system); test: BioMAP BF4T system (TNFα and IL-4); format: cell-based, human; details: 10 uM, procedure of Example 830
[6] = system: Bronchial epithelial cells (BE3C system); test: BioMAP BE3C system (IL-1β, TNFα, IFNγ); format: cell-based, human; details: Homo sapiens, Epithelial cell, 24 h; 10 uM; procedure of Example 831; read-out: % decrease in MMP-1
[7] = system: Coronary artery smooth muscle cells (CASM3C system); test: BioMAP CASM3C system (IL-1β, TNFα, IFNγ); format: cell-based, human
[8] = system: Dermal fibroblasts (HDF3CGF system); test: BioMAP HDF3CGF system (IL-1β, TNFα, IFNγ, EGF, bFGF, PDGF-BB); format: cell-based, human; details: Homo sapiens, Fibroblast, 72 h; 10 uM; read-out: % increase in 72 Hour Proliferation
[9] = system: Keratinocytes co-cultured with dermal fibroblast (KF3CT system); test: BioMAP KF3CT system (IL-1β, TNFα, IFNγ, TGFβ); format: cell-based, human
Method: as §1
Following the general procedure as described in Example 824, Keratinocytes were co-cultured with dermal fibroblast (KF3CT system) and treated with IL-1β, TNFα, IFNγ and TGFβ for 24h in the presence or absence of the compounds to model psoriasis, dermatitis and skin biology. Biomarkers read out were; MCP-1, ICAM-1, IP-10, IL-8, MIG, IL-1α, MMP-9, PAI-1, SRB, TIMP-2, uPA.

[10] = system: Peripheral blood mononuclear cells co-cultured with B-cells (BT system)
[11] = system: Peripheral blood mononuclear cells co-cultured with B-cells (BT system); test: cells; details: Homo sapiens, 72 h, read-out: % decrease in sIL-17
[12] = system: primary fibroblasts (healthy controls and PA, MMA, BCKDK, PDH, VLCAD, LS, PC, GA, VLCFA, KSS, FXN, HD); test: Measurement of ROS (H2DCFDA) in primary fibroblasts; format: cell-based, human; details: Homo sapiens, procedure Example 812, Assay Condition C
Method in brief: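 Patient and healthy-control primary fibroblasts switched to supplemented DMEM 24 h before assay, then treated with compound (10 μM) plus H2DCFDA (22 μM) for 2 h (PA, MMA lines) or 24 h (other lines). Kinetic fluorescence at 492/527 nm over 60 min; only live cells analysed.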

[13] = system: Subnormal activation of pyruvate dehydrogenase complex (PDH) primary fibroblasts GM01503 (GM1503A); test: Total NAD+ + NADH and NAD+ (NAD/NADH-Glo), PDH fibroblasts GM01503; format: cell-based; details: Homo sapiens, Fibroblast, PDH GM1503A P10, assay condition A, 24h, read-out: Increase in Total NAD+ + NADH
Method: (§2) Primary adherent fibroblasts were cultured in minimum essential medium (MEM) (Gibco, 25030081) supplemented with 2 mM L-Glutamine (Gibco, 25030081), 15% fetal bovine serum (FBS) (Gibco, 26400044) and 1% penicillin/streptomycin (Gibco, 5140122) at 37° C. and 5% CO2. Cells were collected for either passaging or experiment at ˜70-80% confluence. Cells were obtained by trypsinization and seeded in cell culture microplates either white plate (Thermo Fisher Scientific, 152028) for luminescent measurement or black plate (Thermo Fisher Scientific, 165305) for fluorescent based read out for different assays listed below. Cells were obtained by trypsinization and […] were seeded and allowed to adhere for 16-18 hours to have confluency around 70-80% in the cell well with culture media. After 24 hours prior to measurements (37° C., 5% CO2) media was changed to Dulbecco's Modified Eagle Medium (DMEM, Agilent Seahorse cat #103575-100) with the appropriate supplements as stated below.
(§3) Primary fibroblasts assayed were Propionic Acidemia (PA) (GM03590 Coriell Institute for Medical Research, Tsi 6337 Trans-Hit Bio), Methylmalonic Acidemia (MMA) (Tsi 5224 Trans-Hit Bio), Subnormal activation of pyruvate dehydrogenase complex (PDH) (GM01503 Coriell Institute for Medical Research), Very long-chain acyl-CoA dehydrogenase (VLCAD) (GM17475), Leigh Syndrome (LS) (GM03672, GM13411 Coriell Institute for Medical Research), Pyruvate Carboxylase Deficiency (PC) (GM00444 Coriell Institute for Medical Research). 10 μM of Compounds were added for 2 hours in PA, MMA lines and for 24h for the other fibroblast lines.
(§4) Assay was performed according to manufacturer instructions (NAD/NADH-Glo Assay Promega, G9072). The NAD/NADH-Glo Assay is a bioluminescent assay for detecting total oxidized and reduced nicotinamide adenine dinucleotides (NAD+ and NADH, respectively) from which ratio of NAD/NADH can be calculated. Briefly, for every assay a 12-point standard curve was prepared ranging from 400 nM to 0.625 nM. Media was removed and replaced with 50 μl of PBS for both assays.
(§5) For individual NAD+ and NADH measurement, 50 μl of 1% DTAB (Sigma Cat #D5047) (cell lysis reagent) in 0.2N NaOH was added to the plate and a total 100 μl of lysate was split into two plates with 50 μl each. 25 μl of 0.4N HCl were added to the NAD+ plate and both NAD+ and NADH plate were heated at 60° C. for 15 minutes. The acid and heat treatment destroyed NADH allowing individual NAD+ measurement while heating in basic conditions destroys NAD+ allowed individual NADH measurements. The plates were allowed to come to room temperature for 10 minutes and Trizma base (Sigma, T1699) was added to the NAD+ plate to neutralize the acid and HCl Trizma hydrochloride (Sigma, T2694) was added to the NADH plate. The NADNADH glo reagent was prepared by adding: 625 μl of NAD cycling substrate, 125 μl of reductase, 125 μl of reductase substrate, 125 μl NAD cycling enzyme to total of the 25 ml of NAD GLO reagent. 1:1 ratio of total volume of reagent was added to the individual NAD+, NADH measurement (total 100 μl) and 50 μl for total NAD/NAH measurement. Luminescence was read between 30-60 minutes within the linear range.
(§6) A total dead cell count was performed as described in Example 817 and only alive cells were used for analysis.

[14] = system: Very long-chain acyl-CoA dehydrogenase (VLCAD) primary fibroblasts GM17475; test: Total NAD+ + NADH and NAD+ (NAD/NADH-Glo), VLCAD fibroblasts GM17475; format: cell-based; details: Homo sapiens, Fibroblast, VLCAD GM17475 P10, assay condition A, 24h, read-out: Increase in Total NAD+ + NADH
Method: as §2, §3, §4, §5, §6

COC(=O)CCC(=O)SCCNC(=O)CCNC(=O)[C@H](OC(C)=O)C(C)(C)CO [Compound 213, methyl 4-[(2-[3-[(2R)-2-(acetyloxy)-4-hydroxy-3,3-dimethylbutanamido]propanamido]ethyl)sulfanyl]-4-oxobutanoate] was tested, and the activation at 10 µM ([1]; assay condition A (10 mM glucose, 2 mM L-glutamine, 1 mM pyruvate, 10% FBS), 10 μM, read-out: Increase in Spare Capacity AUC) was ≥ 10%, the activation at 50 µM ([1]; assay condition D (1 mM glucose, 10% FBS), read-out: Increase in Spare Capacity AUC) was ≥ 10% and the activation at 50 µM (HepG2 cells; 50 uM) was ≥ 30%. For the same compound, the “% decrease in IL-8” value [2] was ≥10%, the “% decrease in MCP-1” value [3] was ≥10% and the “% decrease in M-CSF” value ([4]; 1 uM) was ≥10%. The inhibition at 1 µM ([4]; Homo sapiens, HUVEC, 24 h, 1 uM, read-out: % decrease in IL-8) was ≥ 10%, the inhibition at 10 µM ([4]; Homo sapiens, HUVEC, 24 h, read-out: % decrease in IL-1α) was ≥ 20% and the inhibition at 10 µM ([4]; Homo sapiens, HUVEC, 24 h, read-out: % decrease in TissueFactor) was ≥ 10%. For the same compound, the “% decrease in MMP-9” value [5] was ≥10%, the activation at 10 µM ([5]; Homo sapiens, 24 h, read-out: % increase in VCAM-1) was ≥ 10% and the inhibition at 10 µM [6] was ≥ 10%. For the same compound, the “% decrease in HLA-DR” value ([7]; 1 uM) was ≥10%, the “% decrease in Tissue Factor” value ([7]; 1 uM) was ≥10% and the “% decrease in M-CSF” value ([7]; 1 uM, procedure of Example 832) was ≥10%. For the same compound, the “% decrease in VCAM-1” value ([7]; 1 uM, procedure of Example 832) was ≥10%, the “% decrease in CXCL9” value ([7]; 10 uM) was ≥10% and the inhibition at 10 µM ([7]; Homo sapiens, 24 h, 10 uM, read-out: % decrease in Thrombomodulin) was ≥ 20%. For the same compound, the activation at 10 µM [8] was ≥ 10%, the “% decrease in MMP-9” value ([9]; 1 uM) was ≥10% and the “% decrease in MCP-1” value ([9]; 10 uM, procedure of 834) was ≥10%. For the same compound, the “% decrease in sIL-2” value ([10]; 1 uM, procedure of Example 829) was ≥10%, the “% decrease in sTNFα” value ([10]; 1 uM, procedure of Example 829) was ≥10% and the “% decrease in PBMC cytotoxicity” value ([10]; human, 72 h, 1 µM) was ≥10%. For the same compound, the inhibition at 1 µM [11] was ≥ 20%.

CC(=O)C(C(C)=O)C(=O)SCCNC(=O)CCNC(=O)[C@H](O)C(C)(C)CO [Compound 397, (2R)—N-[2-([2-[(2-acetyl-3-oxobutanoyl)sulfanyl]ethyl]arbamoyl)ethyl]-2,4-dihydroxy-3,3-dimethylbutanamide] was tested, and the activation at 50 µM ([1]; assay condition C (10 mM glucose, 10% FBS), read-out: Increase in Maximal Respiratory Capacity AUC) was ≥ 10%, the inhibition at 10 µM ([12]; Fibroblast, PDH GM01503, read-out: Decreased ROS by at least 10%) was ≥ 10% and the inhibition at 10 µM ([12]; Fibroblast, PDH GM01503, read-out: Decreased ROS by at least 30%) was ≥ 30%. The inhibition at 10 µM ([12]; FXN GM04078, read-out: Decreased ROS by at least 30%) was ≥ 30%, the activation at 10 µM [13] was ≥ 10% and the activation at 10 µM [14] was ≥ 10%. For the same compound, the activation at 10 µM (HepG2 cells; 10 uM) was ≥ 20%.
